Laboratory results as given in the supplement of paper PMC13380429.

How the values were obtained:
Conditions in all cases: 72 h
Caco-2 [1] = experiment: cell viability relative to DMSO; higher = less toxic
Calu-3 [2] = experiment: as above
HepG2 [3] = experiment: as above
U2OS [4] = experiment: as above
Vero E6 [5] = experiment: as above
Caco-2 [6] = experiment: relative viability EC50 (midpoint between 100% and the lowest measured viability); higher = less toxic
Calu-3 [7] = experiment: as above
HepG2 [8] = experiment: as above
U2OS [9] = experiment: as above
Vero E6 [10] = experiment: as above
Caco-2 [11] = experiment: drug sensitivity score (DSS) for viability; higher = more toxic; extreme values may be limits of the assay
Calu-3 [12] = experiment: as above
HepG2 [13] = experiment: as above
U2OS [14] = experiment: as above
Vero E6 [15] = experiment: as above

Row | SMILES | cell viability (Caco-2 [1]; 1 nM) [%] | cell viability (Caco-2 [1]; 10 nM) [%] | cell viability (Caco-2 [1]; 100 nM) [%] | cell viability (Caco-2 [1]; 1000 nM) [%] | cell viability (Caco-2 [1]; 10000 nM) [%] | cell viability (Calu-3 [2]; 1 nM) [%] | cell viability (Calu-3 [2]; 10 nM) [%] | cell viability (Calu-3 [2]; 100 nM) [%] | cell viability (Calu-3 [2]; 1000 nM) [%] | cell viability (Calu-3 [2]; 10000 nM) [%] | cell viability (HepG2 [3]; 1 nM) [%] | cell viability (HepG2 [3]; 10 nM) [%] | cell viability (HepG2 [3]; 100 nM) [%] | cell viability (HepG2 [3]; 1000 nM) [%] | cell viability (HepG2 [3]; 10000 nM) [%] | cell viability (U2OS [4]; 1 nM) [%] | cell viability (U2OS [4]; 10 nM) [%] | cell viability (U2OS [4]; 100 nM) [%] | cell viability (U2OS [4]; 1000 nM) [%] | cell viability (U2OS [4]; 10000 nM) [%] | cell viability (Vero E6 [5]; 1 nM) [%] | cell viability (Vero E6 [5]; 10 nM) [%] | cell viability (Vero E6 [5]; 100 nM) [%] | cell viability (Vero E6 [5]; 1000 nM) [%] | cell viability (Vero E6 [5]; 10000 nM) [%] | relative viability EC50 (Caco-2 [6]) [µM] | relative viability EC50 (Calu-3 [7]) [µM] | relative viability EC50 (HepG2 [8]) [µM] | relative viability EC50 (U2OS [9]) [µM] | relative viability EC50 (Vero E6 [10]) [µM] | drug sensitivity score (Caco-2 [11]) | drug sensitivity score (Calu-3 [12]) | drug sensitivity score (HepG2 [13]) | drug sensitivity score (U2OS [14]) | drug sensitivity score (Vero E6 [15])
1 | CCOc1ccc(Cc2cc([C@@H]3O[C@H](SC)[C@@H](O)[C@H](O)[C@H]3O)ccc2Cl)cc1 [sotagliflozin] | 98.3 | 102 | 100 | 92.5 | 91.1 | 91.4 | 94.1 | 112 | 97.7 | 99.8 | 90.3 | 101 | 98.4 | 101 | 91.8 | 97.7 | 95 | 100 | 97.6 | 95.4 | 94.6 | 97.2 | 95.4 | 95.8 | 102 | > 10 | > 10 | > 10 | > 10 | > 10 | 0 | 0 | 0 | 0 | 0
2 | Cn1c(COc2ccc(CC3SC(=O)NC3=O)cc2)nc2ccccc2c1=O (stereo not given) [balaglitazone] | 91.7 | 106 | 90.7 | 96.4 | 85.3 | 95 | 95 | 103 | 103 | 84.3 | 88.5 | 104 | 85.7 | 100 | 99.2 | 96.4 | 95 | 97.3 | 91.8 | 92 | 98.2 | 94.8 | 88.6 | 93.4 | 101 | > 10 | > 10 | > 10 | > 10 | > 10 | 0.1 | 0.2 | 0 | 0 | 0
3 | Cc1c(C(=O)NN2CCOCC2)nn(-c2ccc(Cl)cc2Cl)c1-c1ccc(I)cc1 [AM-281] | 96.8 | 100 | 96.2 | 96.2 | 107 | 102 | 113 | 104 | 94.5 | 88.1 | 105 | 95.7 | 102 | 101 | 103 | 96.9 | 101 | 95.5 | 100 | 100 | 98.3 | 96.6 | 98.4 | 94.5 | 106 | > 10 | > 10 | > 10 | > 10 | > 10 | 0 | 0.2 | 0 | 0 | 0
4 | C=C1/C(=C\C=C2/CCC[C@]3(C)[C@@H]([C@H](C)CCCC(C)(C)O)CC[C@@H]23)C[C@@H](O)C[C@@H]1O [calcitriol] | 101 | 104 | 105 | 101 | 92.5 | 100 | 106 | 96.7 | 101 | 96.8 | 116 | 112 | 102 | 92.6 | 96.2 | 100 | 104 | 95.9 | 103 | 92.8 | 106 | 102 | 104 | 98.1 | 97.8 | > 10 | > 10 | > 10 | > 10 | > 10 | 0 | 0 | 0 | 0 | 0
5 | OC[C@H]1O[C@@H](OCCc2ccc(O)cc2)[C@H](O)[C@@H](O)[C@@H]1O [salidroside] | 103 | 92.2 | 92.3 | 106 | 104 | 96 | 106 | 102 | 87.2 | 113 | 91.4 | 97 | 109 | 87 | 104 | 102 | 93.9 | 96 | 103 | 101 | 95.5 | 94.8 | 93.2 | 99.8 | 107 | > 10 | > 10 | > 10 | > 10 | > 10 | 0 | 0 | 0 | 0 | 0
6 | C[C@H](NC(=O)CNC(=O)c1cccc(Cl)c1)c1ccccc1 | 100 | 102 | 96.6 | 100 | 102 | 91.2 | 95.1 | 96.3 | 108 | 90.8 | 102 | 107 | 98.8 | 98.6 | 101 | 101 | 96.8 | 99.7 | 98.1 | 101 | 103 | 96.2 | 96.4 | 104 | 99.1 | > 10 | > 10 | > 10 | > 10 | > 10 | 0 | 0 | 0 | 0 | 0
7 | O=C([O-])c1ccccn1.O=C([O-])c1ccccn1.O=C([O-])c1ccccn1.[Cr+3] [chromium-picolinate] | 105 | 92 | 104 | 95.5 | 103 | 111 | 102 | 113 | 103 | 97.6 | 93 | 95.3 | 103 | 98.7 | 90.1 | 104 | 97.7 | 98.6 | 98.9 | 102 | 102 | 103 | 105 | 99.2 | 101 | > 10 | > 10 | > 10 | > 10 | > 10 | 0 | 0 | 0 | 0 | 0
